Measured values published in patent US20190330607A1, “USE OF A SUGAR TOLERANT BETA-GLUCOSIDASE” (Universitè de Liége, priority 2016, published 2019).
Like-named read-outs stand apart in the source and are kept apart here.

Columns and labels:
Assay type in all cases: biochemical
[1] = system: BglC (beta-glucosidase of Streptomyces scabies 87-22); assay: Relative enzyme activity of BglC with p-NPβG as substrate in presence of tested reagent
Method: (§1) Relative enzyme activity was determined using p-nitrophenyl-β-D-glucopyranoside (p-NPβG) as substrate. The reaction mixture (200 μL) containing 50 mM HEPES buffer (pH 7.5), 0.2 μM of purified BglC and the tested reagent was incubated 10 minutes at 25° C. before addition of 1 mM p-NPβG. The reaction was carried out at 25° C. for 2 minutes and stopped by addition of 100 μL of 2 M Na2CO3. All assays were performed under these conditions, unless otherwise indicated. The release of p-nitrophenol (p-NP) was measured at 405 nm with a TECAN Infinite® 200 PRO. The activity assayed in absence of the tested reagent was recorded as 100%.

[2] = Substrate specificity of BglC by thin layer chromatography; settings: 30° C.
Method: The cleavage ability of BglC was tested against different cello-oligosaccharides (cellobiose, cellotriose, cellotetraose, cellopentaose and cellohexaose (Megazyme; Ireland)) or different disaccharides (lactose, saccharose, maltose, threalose and turanose). Reaction mixtures (100 μL) containing 50 mM HEPES buffer pH 7.5, 0.4 μM of purified BglC, 6.25 mM of cello-oligosaccharides or 12.5 mM of disaccharides were incubated at 30° C. 15 μL of each sample were collected at 0, 15, 30 and 60 min than heated at 98° C. for 5 min to stop the reaction. Each sample was spotted onto aluminum-backed Silica gel plate (Sigma). The plates were developed with chloroform-methanol-acetic acid-water solvent (50:50:15:5, vol/vol), air dried, dipped in 5% H2SO4 in ethanol and finally heated over a hot plate until visualization of carbohydrate spots.

[3] = Time course of cellobiose hydrolysis by BglC over 7 days, HPLC
Method: Glucose and cellobiose analysis was performed by HPLC on an Aminex HPX-87P Column (300×7.8 mm) heated to 80° C. with H2O as eluent (flow rate 0.6 mL/min). Peaks were detected by refractive index detector (Waters 2414).
The tolerance of BglC to glucose was further investigated during prolonged reaction time (7 days). Cellobiose and glucose quantification were performed by HPLC (FIG. 5). 80% of cellobiose was hydrolyzed in 48 h (FIG. 5).

[4] = Effect of temperature and pH on BglC activity (p-NPβG)
Method: as §1
The optimal temperature was determined by measuring the relative enzyme activity of BglC in HEPES 50 mM pH 7.5 at 20, 25, 30, 37 and 42° C. To measure the effect of pH on activity of BglC, relative activity was essayed in the range of pH 5.0-6.5 (50 mM MES buffer), pH 7.0-8.5 (50 mM HEPES buffer) and pH 9-10 (50 mM CHES buffer) at 25° C.

[5] = Kinetic analysis of BglC on cellobiose (glucose released, D-Glucose HK Assay Kit)
Method: Kinetic parameters of BglC (Km and kcat) were determined by measuring the glucose released at various cellobiose concentrations in 50 mM HEPES buffer pH 7.5 at 26° C. Reaction time of 7 min was chosen to ensure initial rates of hydrolysis. The glucose released was determined using the D-Glucose HK Assay Kit from Megazyme (Ireland). Data were fitted to the Henri-Michaelis-Menten equation using the GraphPad Prism 5 software.

[6] = reagent 10 mM, activity without additive = 100%
[7] = reagent 10%, activity without additive = 100%
[8] = Oses (15%), control = 100%, p-NPβG substrate
[9] = substrate cellobiose, 50 mM HEPES pH 7.5, 26° C.

Molecule: O[C@H](CS)[C@H](O)CS (racemic) [DTT, dithiothreitol]
- Relative initial rate of hydrolysis (%) [1, 6]: 116 ± 5%

Molecule: O=C(O)CN(CCN(CC(=O)O)CC(=O)O)CC(=O)O [EDTA, ethylene diamine tetraacetic acid]
- Relative initial rate of hydrolysis (%) [1, 6]: 98 ± 15%

Molecule: CCO [Ethanol, ethanol]
- ethanol concentration with maximal enhancing activity ([1]; ethanol 0 to 40% tested (FIG. 6)): 15%
- Relative initial rate of hydrolysis (%) [1, 7]: 218 ± 6%

Molecule: O=C(CO)[C@@H](O)[C@H](O)[C@H](O)CO [Fructose, fructose]
- Relative initial rate of hydrolysis (%) [1, 8]: 178 ± 9%

Molecule: O=C[C@H](O)[C@@H](O)[C@@H](O)[C@H](O)CO [Galaclose, galactose]
- Relative initial rate of hydrolysis (%) [1, 8]: 255 ± 9%

Molecule: CO [Methanol, methanol]
- Relative initial rate of hydrolysis (%) [1, 7]: 65 ± 6%

Molecule: [Cl-].[Na+] [NaCl]
- activity of BglC kept ([1]; NaCl 500 mM (FIG. 7)): around 70%
- activity of BglC ([1]; NaCl 1 M (FIG. 7)): about 50%
- effect on capacity of the enzyme to hydrolyze p-NPβG ([1]; NaCl below 100 mM (FIG. 7)): does not significantly alter

Molecule: CCCCCCCCCCCCOS(=O)(=O)[O-].[Na+] [SDS]
- Relative initial rate of hydrolysis (%) [1, 6]: 64 ± 3%

Molecule: OC[C@@H](O)[C@@H](O)[C@H](O)[C@@H](O)CO [Sorbitol, sorbitol]
- Relative initial rate of hydrolysis (%) [1, 8]: 202 ± 1%

Molecule: NC(N)=O [Urea, urea]
- Relative initial rate of hydrolysis (%) [1, 6]: 103 ± 13%

Molecule: O=C[C@H](O)[C@@H](O)[C@H](O)CO [Xylose, xylose]
- Relative initial rate of hydrolysis (%) [1, 8]: 340 ± 20%
- maximal activity of BglC ([1]; xylose 0.3 to 1.6 M (FIG. 4)): 300-350%

B1: BglC: recombinant His-tagged beta glucosidase of Streptomyces scabies 87-22, SEQ ID NO:2 (protein, listed as Streptomyces scabiei)
chain: MPEPVNPATPVTFPPAFLWGAATSAYQIEGAVREDGRTPSIWDTFSHTPGKTAGGENGDIAVDHYHRYRDDVAMMADLGLNAYRFSVSWSRVQPTGRGPAVQKGLDFYRRLVDELLAKGIKPAVTLYHWDLPQELEDAGGWPERDIVHRFAEYARIMGEALGDRVEQWITLNEPWCTAFLGYGSGVHAPGRTDPVASLRAAHHLNVAHGLGVSALRSAMPARNSIAVSLNSSVVRPITSSPEDRAAARKIDDLANGVFHGPMLHGAYPETLFAATSSLTDWSFVRDGDVATAHQPLDALGLNYYTPALVGAADAGLEGPRADGHGASEHSPWPAADDVLFHQTPGERTEMGWTIDPTGLHELIMRYAREAPGLPMYVTENGAAYDDKMDADGRVHDPERIAYLHGHLRAVRRAIAEGADVRGYYLWSLMDNFEWAYGYGKRFGAVYVDYATLTRTPKSSAHWYGQAAKTGALPPLAPAPA
modifications: His6 tag
- hydrolysis of cellobiose and cello-oligosaccharides (cellotriose to cellohexaose) ([2]; 6.25 mM substrate, 0.4 μM BglC, 0-60 min (FIG. 2)): able to generate glucose
- hydrolysis of other disaccharides (saccharose, maltose, threalose, turanose) ([2]; 12.5 mM disaccharides): did not reveal hydrolysis
- hydrolysis of lactose ([2]; 12.5 mM, compared with cellobiose or cello-oligosaccharides): much less efficiency
- transglycosylation activity ([3]; between glucose and cellobiose, 7 days reaction, glucose only product detected): no or reduced transglycosylation activity
- cellobiose hydrolyzed ([3]; in 48 h (FIG. 5)): 80%
- optimal pH ([4]; 25° C., pH 5-10 tested): around 7.5
- activity relative to maximal activity ([4]; 42° C., HEPES 50 mM pH 7.5 (FIG. 3A)): 10%
- Vmax [5]: 7.3 µmol/min/mg
- Km [5, 9]: 770 µM
- Vmax [5, 9]: 7.3 µmol/min/mg
- kcat [5, 9]: 6.67 s⁻¹
